Structures are written as SMILES. Entries after “also recorded” stand apart in the source; their conditions may differ.

One test deals with p62. As to the kind of experiment: p62 Western blot in T6PNE cells. Type of test: cell-based, human. As to conditions: NCT 10 μM, RA 10 μM, fenretinide. The method, then:
Whole-cell extracts were prepared by incubation in RIPA buffer (Invitrogen) containing protease inhibitors (Calbiochem, San Diego, Calif.). Protein ([…]) was separated on 12% or 16% Tri-Glycine gels (Invitrogen) and transferred to Immobilon P membrane (0.2 μm pore, Millipore). After 1 h in phosphate-buffered saline-Tween (PBST) with 3% milk, membrane was incubated with antibodies to HNF4α (mouse, Novus, 1:1000), LC3B (rabbit, Novus, 1:500), p62 (SQSTM1, mouse, Santa Cruz, 1:1000) or β-actin (mouse, Santa Cruz, 1:2000), followed by secondary antibody conjugated to horseradish peroxidase (1:5000, Jackson Immune).

Another test concerns dihydroceramides. In words: lipidomic analysis of ceramides and dihydroceramides in T6PNE cells. It counts as cell-based, human. As to conditions: 2 days after treatment. As to the method:
Ceramides and dihydroceramides were measured in the UCSD Lipidomics Core Facility as previously described (Quehenberger et al.). Briefly, samples were extracted using the butanol: methanol (BUME) method. The lipid layer was collected and run on a Thermo-Vanquish UPLC (Thermo Scientific) with a Cortecs T3 (C18), 2.1 mm×150 mm; 1.8 uT3 column and a binary solvent system. Mass spectrometry employed a Thermo Q Exactive instrument with MS/MS data dependent acquisition scan mode and LipidSearch software (Thermo Fisher Scientific).

The target in another test is T1, HNF4α (Mus musculus, UniProt P49698).
T1 construct: from tissue; host or cells: liver of C57BL/6 J DIO male mice
T1 sequence (P49698 1-474): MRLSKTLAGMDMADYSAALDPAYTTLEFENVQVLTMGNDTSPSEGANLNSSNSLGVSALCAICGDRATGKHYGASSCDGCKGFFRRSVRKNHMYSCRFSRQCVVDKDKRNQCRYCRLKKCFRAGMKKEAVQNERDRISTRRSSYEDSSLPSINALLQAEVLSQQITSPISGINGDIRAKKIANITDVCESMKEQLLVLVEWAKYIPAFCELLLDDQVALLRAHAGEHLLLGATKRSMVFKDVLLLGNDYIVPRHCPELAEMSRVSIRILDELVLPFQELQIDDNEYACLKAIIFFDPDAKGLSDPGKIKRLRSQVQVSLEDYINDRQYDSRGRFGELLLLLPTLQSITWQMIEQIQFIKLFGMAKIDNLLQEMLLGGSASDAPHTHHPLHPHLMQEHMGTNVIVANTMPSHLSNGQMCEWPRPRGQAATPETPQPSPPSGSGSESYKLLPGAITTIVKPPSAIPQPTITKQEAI
As to the kind of experiment: hepatic HNF4α expression in DIO mice. Type of test: in vivo. The following applies: 200 mg/kg bid IP, 14 days; for hepatic HNF4α protein (nuclear staining): 200 mg/kg. As to the method: Quantitative PCR (Q-PCR) from in vitro cell culture experiments used total RNA purified using RNeasy Kits (Qiagen). For liver tissue samples, total RNA was isolated using Trizol (Invitrogen) and prepared for RNAseq (mouse liver DMSO and NCT, N=3). cDNA was amplified using 3 μg of total RNA using qScript cDNA SuperMix (Quanta BioSciences, Beverly, Mass., USA). QPCR analysis was performed using SYBR® Select Master Mix (Applied Biosystems) and ABI 7900HT (Applied Biosystems, Thermo Fisher Scientific). The Ct values of mRNA expression were then normalized to the 18 s rRNA values and are expressed as fold change over samples from mice fed normal chow for in vivo experiments or DMSO controls for cell culture experiments.
For dose response experiments, mice were injected intraperitoneally with 10% DMSO as vehicle control or 4 different doses of NCT (30, 60, 120 and 240 mg/kg of body weight) dissolved in 10% DMSO. Mice received 2 doses per day with a 5 h interval between injections for 3 days. To test the effect of NCT (Sundia MediTech Company, Ltd., Custom synthesis), 200 mg/kg was injected IP bid for 14 days. On day 15, mice received a final dose of NCT followed by IP injection with 3 g/kg dextrose. One h later, blood samples were collected and mice were euthanized using pentobarbital. Total mouse, liver and epididymal fat pad weights were measured. Dissected liver samples were washed in cold PBS, cut into small pieces and distributed for analyses. For RNA isolation and ELISA, liver samples were snap frozen using liquid nitrogen and stored at −80° C. […]
Frozen liver sections were permeabilized using 0.3% Triton-X and incubated in antigen retrieval solution (Antigen retrieval citrate, Biogenex) at sub boiling temperature for 10 min. […] Slides were mounted using fluorescence mounting medium and images were obtained at 40× magnification using an Olympus IX71 fluorescence microscope. Fluorescence intensity of HNF4α-stained nuclei was calculated using MetaMorph TL software (version 7.6.5.0, Olympus).

Where [1] appears, read: listed as N-trans-caffeoyltyramine.

As for `O=C(/C=C/c1ccc(O)c(O)c1)NCCc1ccc(O)cc1` [NCT, N-trans-caffeoyltyramine], in the test on p62, the “p62 protein expression normalized to actin” value was “induced increases”. For the same molecule, the dihydroceramide production entry with dihydroceramides is “multiple dihydroceramides were increased; also recorded: induced multiple identical dihydroceramides”; with dihydroceramides (setting [1]), “Dihydroceramide was induced”. Moreover, the “hepatic HNF4α mRNA” value at HNF4α is “reversed the loss”. In addition, the “hepatic HNF4α protein (nuclear staining)” value at HNF4α is on record as “reversed the loss of HNF4α protein; also recorded: recovery of normal hepatic HNF4α expression”; on HNF4α (setting [1]), “reversed that reduction; also recorded: increased the HNF4a staining”.
